Test results published in ChEMBL document CHEMBL1152549, “Synthesis and molecular modeling of some novel hexahydroindazole derivatives as potent monoamine oxidase inhibitors” (Bioorg Med Chem, 2009).

What was measured:
[1] = organism: Rattus norvegicus; test: Selectivity index, ratio of Ki for rat MAOA to Ki for rat MAOB
[2] = target: T1, Amine oxidase [flavin-containing] A (Rattus norvegicus, UniProt P21396); test: Competitive inhibition of MAOA in rat liver homogenate by spectrophotometrically; format: tissue-based
T1 sequence (P21396 whole entry): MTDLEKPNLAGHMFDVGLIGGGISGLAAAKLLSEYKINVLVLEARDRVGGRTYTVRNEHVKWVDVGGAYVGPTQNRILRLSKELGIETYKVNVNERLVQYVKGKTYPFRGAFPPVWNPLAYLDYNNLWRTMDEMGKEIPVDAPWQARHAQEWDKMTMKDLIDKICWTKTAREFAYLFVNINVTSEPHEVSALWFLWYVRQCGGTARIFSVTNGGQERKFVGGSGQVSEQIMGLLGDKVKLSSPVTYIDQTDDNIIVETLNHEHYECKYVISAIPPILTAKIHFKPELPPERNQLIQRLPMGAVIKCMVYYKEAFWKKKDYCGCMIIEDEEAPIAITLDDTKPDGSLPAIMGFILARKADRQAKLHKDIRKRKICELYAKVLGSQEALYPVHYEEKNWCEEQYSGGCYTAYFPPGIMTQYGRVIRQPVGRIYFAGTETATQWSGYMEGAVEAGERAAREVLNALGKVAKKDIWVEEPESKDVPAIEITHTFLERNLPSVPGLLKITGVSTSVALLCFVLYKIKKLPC

[3] = target: T2, Amine oxidase [flavin-containing] B (Rattus norvegicus, UniProt P19643); test: Competitive inhibition of MAOB in rat liver homogenate by spectrophotometrically; format: tissue-based
T2 sequence (P19643 whole entry): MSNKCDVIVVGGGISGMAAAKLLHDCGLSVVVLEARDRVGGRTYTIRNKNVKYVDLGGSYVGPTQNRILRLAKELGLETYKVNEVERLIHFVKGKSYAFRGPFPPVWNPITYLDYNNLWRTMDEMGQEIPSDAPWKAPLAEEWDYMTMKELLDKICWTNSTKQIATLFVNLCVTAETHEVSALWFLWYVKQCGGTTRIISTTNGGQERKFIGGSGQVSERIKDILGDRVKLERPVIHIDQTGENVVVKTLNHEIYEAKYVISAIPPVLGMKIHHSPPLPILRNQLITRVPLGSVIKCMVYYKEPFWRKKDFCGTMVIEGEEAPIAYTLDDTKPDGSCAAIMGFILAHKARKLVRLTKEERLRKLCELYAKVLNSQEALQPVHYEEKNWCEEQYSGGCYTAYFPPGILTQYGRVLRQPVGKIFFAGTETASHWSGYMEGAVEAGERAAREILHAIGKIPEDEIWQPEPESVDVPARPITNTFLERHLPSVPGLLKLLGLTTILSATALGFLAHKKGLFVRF

| Ratio Ki [1] | IC50 [2] [µM] | Ki [2] [µM] | IC50 [3] [µM] | Ki [3] [µM] | SMILES |
| --- | --- | --- | --- | --- | --- |
| 4060 | 80.2 | 3.9 | 1.37 | 0.00096 | NC(=S)N1NC2=C(CCCC2)C1c1ccco1 (configuration not stated) |
| 3320 | 95.2 | 2.99 | 1.26 | 0.0009 | NC(=S)N1NC2=C(CCCC2)C1c1cccs1 (configuration not stated) |
| 0.0034 | 0.78 | 0.00422 | 80.4 | 1.23 | S=C(Nc1ccccc1)N1NC2=C(CCCC2)C1c1ccco1 (configuration not stated) |
| 2.96 | 62.3 | 5.01 | 2.61 | 1.69 | CNC(=S)N1NC2=C(CCCC2)C1c1cccs1 (configuration not stated) |
| 0.57 | 3.01 | 1.72 | 90.1 | 3.01 | CCNC(=S)N1NC2=C(CCCC2)C1c1cccs1 (configuration not stated) |
| 2.19 | 110 | 4.26 | 2.77 | 1.95 | CCNC(=S)N1NC2=C(CCCC2)C1c1ccco1 (configuration not stated) |
| – | – | – | 89.5 | 1.08 | O=C(NCCN1CCOCC1)c1ccc(Cl)cc1 [MOCLOBEMIDE] |
| 0.004 | 0.7 | 0.0391 | 75.1 | 92.3 | S=C(Nc1ccccc1)N1NC2=C(CCCC2)C1c1cccs1 (configuration not stated) |
| 4.2 | 108 | 8.82 | 2.99 | 2.1 | CNC(=S)N1NC2=C(CCCC2)C1c1ccco1 (configuration not stated) |
